Reference: patent EP0260127A2, “Xanthine derivatives, their preparation and pharmaceutical compositions containing them” (BEECHAM - WUELFING GmbH & Co. KG, priority 1986, dated 1988)
pKi: −log10 of the molar value. Marks after values point to notes of the source that are not given here.

What was measured:
[1] = system: Mongolian gerbils; experiment: Gerbil ischaemic deficit passive avoidance test (recall latency following transient forebrain ischaemia); assay type: in vivo; details: 3mg/kg p.o., seven administrations; gerbils after 5min bilateral carotid artery ligation; ischaemic controls 14, sham-ligated controls 33
Description: 2. The Gerbil Ischaemic Deficit Passive Avoidance Test.
Mongolian gerbils were conditioned to avoid entering a dark compartment by means of a footshock (maximally 50V, 2s duration) received when entering from the light section of a two compartment box. Recollection of the footshock was examined 24h later by replacing the gerbils in the two compartment box and measuring the recall latency, the time taken to re-enter the dark compartment.
Effect of test compound on recall latency in the gerbil following transient forebrain ischaemia.
A learning or memory deficit was induced in the gerbils by a transient (5min) bilateral carotid artery ligation, performed 24h prior to conditioning, under light hexobarbital anaesthesia.
Compounds, being examined for an effect on learning or memory in gerbils which had undergone carotid occlusion, were administered seven times during the experiment. The initial administration was during the period of forebrain ischaemia, the third and seventh administrations were 10min prior to conditioning and recall testing, respectively, and the remainder were given at intermediate time points.
A long recall latency indicates good information acquisition or retrival.

[2] = system: rat ischaemic gastrocnemius muscle; experiment: Effect on oxygen tension (pO2) of rat ischaemic gastrocnemius muscle; assay type: in vivo; details: ischaemic hindlimb, femoral artery ligated 2-4 days previously
[3] = target: cyclic AMP phosphodiesterase; experiment: Inhibition of cyclic AMP phosphodiesterase (Dixon plot); assay type: biochemical; details: homogenates of rat skeletal muscle; 0.31 µM cyclic AMP as substrate; estimated from Dixon plot; read-out: Apparent Ki value
Description: 4. Inhibition of cyclic AMP phosphodiesterase.
The activity of cyclic AMP phosphodiesterase in homogenates of rat skeletal muscle was measured in the presence of various concentrations of compounds of formula (I) using 0.31 µM cyclic AMP as substrate. The reciprocal of the reaction rate was plotted on the y axis against the concentration of each compound on the x axis (Dixon plot). The apparent Ki value was estimated by extrapolating the steeper linear portion of the Dixon plot to the x axis and obtaining the negative intercept on the x axis.

| pKi [3] | Compound | Percentage of animals with recall latencies >60s [1] | CHANGE in pO2 (Torr) (mean ± SEM) ([2]; 5.0 mg/kg i.v., n 4) | CHANGE in pO2 (Torr) (mean ± SEM) ([2]; 1.0 mg/kg i.v., n 8) |
| --- | --- | --- | --- | --- |
| 4.89 | CCCCn1c(=O)c2c(ncn2CC(C)=O)n(CCC(C)O)c1=O (centres unmarked) [Example E9, 1-n-Butyl-3-(3-hydroxybutyl)-7-(2-oxopropyl)xanthine] |  |  |  |
| 4.09 | CC(=O)Cn1cnc2c1c(=O)n(CCC(C)O)c(=O)n2CCC(C)O (centres unmarked) [Example E11, 1,3-bis-(3-Hydroxybutyl)-7-(2-oxopropyl)xanthine] |  |  |  |
| 3.09 | CC(O)CCn1c(=O)c2c(ncn2CC(C)O)n(CCC(C)O)c1=O (centres unmarked) [Example E14, 1,3-bis-(3-Hydroxybutyl)-7-(2-hydroxypropyl)xanthine] |  |  |  |

The next lines start with the molecule.

| Compound | pKi [3] | Percentage of animals with recall latencies >60s [1] | CHANGE in pO2 (Torr) (mean ± SEM) ([2]; 5.0 mg/kg i.v., n 4) | CHANGE in pO2 (Torr) (mean ± SEM) ([2]; 1.0 mg/kg i.v., n 8) |
| --- | --- | --- | --- | --- |
| CCCCn1c(=O)n(CCC(C)O)c(=O)c2c1ncn2CC(C)O (centres unmarked) [Example E5, 1-(3-Hydroxybutyl)-3-n-butyl-7-(2-hydroxypropyl) xanthine] | 3.89 | 32* | 2.3 ± 1.6 |  |
| CCCCn1c(=O)c2c(ncn2CC(C)O)n(CCC(C)O)c1=O (centres unmarked) [Example E6, 1-n-Butyl-3-(3-hydroxybutyl)-7-(2-hydroxypropyl)xanthine] | 4.03 | 33* |  | 2.2 ± 0.6 |
| CCCCn1c(=O)n(CCC(C)O)c(=O)c2c1ncn2CC(C)=O (centres unmarked) [Example E7, 1-(3-Hydroxybutyl)-3-n-butyl-7-(2-oxopropyl)xanthine] | 4.89 |  |  |  |
| CCCCn1c(=O)n(CCC(C)=O)c(=O)c2c1ncn2CC(C)O (centres unmarked) [Example E8, 1-(3-Oxobutyl)-3-n-butyl-7-(2-hydroxypropyl) xanthine] | 3.80 |  |  |  |
